Laboratory results as given in EP1948196B1, “USE OF TETRAORGANOSILICON COMPOUNDS” (Salama, Zoser B., priority 2005, dated 2007).
Numbered stars: 1 amine (or outer) side, 2 acyl side, 3 side chain; on linkers, the order of the positions; unused ones are H or OH. Bridge positions count the residues as written; N and C are the ends. Peptide text beside a SMILES is read from it. I, II: the chains in the order shown. X2 = c1ccc([Si](O[*:1])(O[*:2])c2ccccc2)cc1; X1 = C[Si](C)(O[*:1])O[*:2]

Experiments:
Seminome = test: Effect on seminomas
Hepatitis C-Viren = test: Antiviral effect; conditions: in particular as vesicles holding antisense constructs
Adenokarzinom-Gewebe = test: Effect against adenocarcinoma tissue, inhibition of metastasis
Angiosarkome = test: Effect on angiosarcomas
Basalzellkarzinome = test: Effect on basal cell carcinomas
Hepatitis B-Viren = test: Antiviral effect; conditions: in particular as vesicles holding antisense constructs
Sendai-Viren = test: Antiviral effect; conditions: in particular as vesicles holding antisense constructs
[1] = test system: Osteosarkom bzw. Adenokarzinome; test: Effect in mice on osteosarcoma or adenocarcinoma; design: species or system Mäuse; conditions: in vivo
Medulloblastom-Zellen = test: Inhibition of cell multiplication; type: cell-based
[2] = test system: Zellen des Basatzellkarzinoms; test: Inhibition of cell multiplication; type: cell-based
Lymphome = test: Effect on lymphomas
Hepatitis-Viren = test: Antiviral effect; conditions: in particular as vesicles holding antisense constructs

Compound: CCCCCCCC/C=C\CCCCCCCC(=O)O[Si](CC)(CC)OC(=O)CCCCCCC/C=C\CCCCCCCC [Di (oleylooxy)diethylsilan]
- Wirkung auf Seminome (Seminome): zeigen eine Wirkung
- Wirkung gegen Hepatitis C-Viren (Hepatitis C-Viren): zeigen eine Wirkung

Compound: CCCCCCCCCCCC(=O)O[Si](OC(=O)CCCCCCCCCCC)(C(C)C)C(C)C [Di(dodecanoyloxy)diisopropylsilan]
- Wirkung gegen Adenokarzinom-Gewebe, insbesondere inhibierende Wirkung auf die Metastasierung (Adenokarzinom-Gewebe): haben eine Wirkung

Compound: CCCCCCCCCCCCCCCCC(=O)O[Si](CCC)(CCC)OC(=O)CCCCCCCCCCCCCCCC [Di(heptadecanoyloxy)dipropylsilan]
- Wirkung gegen Angiosarkome (Angiosarkome): zeigen eine Wirkung
- Wirkung auf Basalzellkarzinome (Basalzellkarzinome): zeigen eine Wirkung
- Wirkung gegen Hepatitis B-Viren (Hepatitis B-Viren): zeigen eine Wirkung
- Wirkung gegen Sendai-Viren (Sendai-Viren): zeigen eine Wirkung

Compound: CCCCCCCCCCCCCCCC(=O)O[Si](OC(=O)CCCCCCCCCCCCCCC)(C(C)C)C(C)C [Di(hexadecanoyloxy)diisopropylsilan]
- Wirkung gegen Adenokarzinom-Gewebe, insbesondere inhibierende Wirkung auf die Metastasierung (Adenokarzinom-Gewebe): haben eine Wirkung

Compound: CCCCCCCCCCCCCCCC(=O)O[Si](CCC)(CCC)OC(=O)CCCCCCCCCCCCCCC [Di(hexadecanoyloxy)dipropylsilan]
- Wirkung gegen Angiosarkome (Angiosarkome): zeigen eine Wirkung
- Wirkung auf Basalzellkarzinome (Basalzellkarzinome): zeigen eine Wirkung
- Wirkung gegen Hepatitis B-Viren (Hepatitis B-Viren): zeigen eine Wirkung
- Wirkung gegen Sendai-Viren (Sendai-Viren): zeigen eine Wirkung

Compound: CC/C=C\C/C=C\C/C=C\CCCCCCCC(=O)O[Si](CC)(CC)OC(=O)CCCCCCC/C=C\C/C=C\C/C=C\CC [Di(linolenoylooxy)diethylsilan]
- Wirkung auf Seminome (Seminome): zeigen eine Wirkung
- Wirkung gegen Hepatitis C-Viren (Hepatitis C-Viren): zeigen eine Wirkung

Compound: CC/C=C\C/C=C\C/C=C\CCCCCCCC(=O)O[Si](CCC)(CCC)OC(=O)CCCCCCC/C=C\C/C=C\C/C=C\CC [Di(linolenoylooxy)dipropylsilan]
- Wirkung auf Seminome (Seminome): zeigen eine Wirkung
- Wirkung gegen Hepatitis C-Viren (Hepatitis C-Viren): zeigen eine Wirkung

Compound: CCCCC/C=C\C/C=C\CCCCCCCC(=O)O[Si](CCC)(CCC)OC(=O)CCCCCCC/C=C\C/C=C\CCCCC [Di(linoylooxy)dipropylsilan]
- Wirkung auf Seminome (Seminome): zeigen eine Wirkung
- Wirkung gegen Hepatitis C-Viren (Hepatitis C-Viren): zeigen eine Wirkung

Compound: CCCCCCCCCCCCCCCCCC(=O)O[Si](CCC)(CCC)OC(=O)CCCCCCCCCCCCCCCCC [Di(octadecanoyloxy)dipropylsilan]
- Wirkung gegen Angiosarkome (Angiosarkome): zeigen eine Wirkung
- Wirkung auf Basalzellkarzinome (Basalzellkarzinome): zeigen eine Wirkung
- Wirkung gegen Hepatitis B-Viren (Hepatitis B-Viren): zeigen eine Wirkung
- Wirkung gegen Sendai-Viren (Sendai-Viren): zeigen eine Wirkung

Compound: CCCCCCCC(=O)O[Si](OC(=O)CCCCCCC)(C(C)C)C(C)C [Di(octanoyloxy)diisopropylsilan]
- Wirkung gegen Angiosarkome (Angiosarkome): zeigen eine Wirkung
- Wirkung auf Basalzellkarzinome (Basalzellkarzinome): zeigen eine Wirkung
- Wirkung gegen Hepatitis B-Viren (Hepatitis B-Viren): zeigen eine Wirkung
- Wirkung gegen Sendai-Viren (Sendai-Viren): zeigen eine Wirkung

Compound: CCCCCCCCCCCCCCC(=O)O[Si](OC(=O)CCCCCCCCCCCCCC)(C(C)C)C(C)C [Di(pentadecanoyloxydiisopropylsilan]
- Wirkung gegen Adenokarzinom-Gewebe, insbesondere inhibierende Wirkung auf die Metastasierung (Adenokarzinom-Gewebe): haben eine Wirkung

Compound: CCCCCCCCCCCCCC(=O)O[Si](OC(=O)CCCCCCCCCCCCC)(C(C)C)C(C)C [Di(tetradecanoyloxy)diisopropylsilan]
- Wirkung gegen Adenokarzinom-Gewebe, insbesondere inhibierende Wirkung auf die Metastasierung (Adenokarzinom-Gewebe): haben eine Wirkung

Compound: CCCCCCCCCCCCC(=O)O[Si](OC(=O)CCCCCCCCCCCC)(C(C)C)C(C)C [Di(tridecanoyloxy)diisopropylsilan]
- Wirkung gegen Adenokarzinom-Gewebe, insbesondere inhibierende Wirkung auf die Metastasierung (Adenokarzinom-Gewebe): haben eine Wirkung

Compound: C[C@H](N)C(=O)N[C@@H](C)C(=O)N[C@@H](C)C(=O)N[C@@H](C)C(=O)N[C@@H](C)C(=O)N[C@@H](C)C(=O)N[C@@H](C)C(=O)N[C@@H](C)C(=O)O[Si](C)(C)OC(=O)[C@H](C)NC(=O)[C@H](C)NC(=O)[C@H](C)NC(=O)[C@H](C)NC(=O)[C@H](C)NC(=O)[C@H](C)NC(=O)[C@H](C)NC(=O)[C@H](C)N [Dimethyl bis(octaalanyl)silylester] (I: H-AAAAAAAA / II: H-AAAAAAAA; linker I:C-II:C via X1)
- Wirkung auf Mäuse, Osteosarkom bzw. Adenokarzinome [1]: zeigen eine Wirkung
- Vermehrung von Medulloblastom-Zellen (Medulloblastom-Zellen): inhibieren
- Vermehrung von Zellen des Basatzellkarzinoms [2]: inhibieren

Compound: C[C@H](N)C(=O)N[C@@H](C)C(=O)N[C@@H](C)C(=O)N[C@@H](C)C(=O)N[C@@H](C)C(=O)O[Si](C)(C)OC(=O)[C@H](C)NC(=O)[C@H](C)NC(=O)[C@H](C)NC(=O)[C@H](C)NC(=O)[C@H](C)N [Dimethyl bis(pentaalanyl)silylester]
- Wirkung auf Mäuse, Osteosarkom bzw. Adenokarzinome [1]: zeigen eine Wirkung
- Vermehrung von Medulloblastom-Zellen (Medulloblastom-Zellen): inhibieren
- Vermehrung von Zellen des Basatzellkarzinoms [2]: inhibieren

Compound: C[C@H](N)C(=O)N[C@@H](C)C(=O)N[C@@H](C)C(=O)N[C@@H](C)C(=O)N[C@@H](C)C(=O)N[C@@H](C)C(=O)N[C@@H](C)C(=O)O[Si](OC(=O)[C@H](C)NC(=O)[C@H](C)NC(=O)[C@H](C)NC(=O)[C@H](C)NC(=O)[C@H](C)NC(=O)[C@H](C)NC(=O)[C@H](C)N)(c1ccccc1)c1ccccc1 [Diphenyl bis(heptaalanyl)silylester] (I: H-AAAAAAA / II: H-AAAAAAA; linker I:C-II:C via X2)
- Wirkung auf Lymphome (Lymphome): zeigen eine Wirkung
- Wirkung gegen Hepatitis-Viren (Hepatitis-Viren): zeigen eine Wirkung

Compound: C[C@H](N)C(=O)N[C@@H](C)C(=O)N[C@@H](C)C(=O)N[C@@H](C)C(=O)N[C@@H](C)C(=O)N[C@@H](C)C(=O)N[C@@H](C)C(=O)N[C@@H](C)C(=O)N[C@@H](C)C(=O)O[Si](OC(=O)[C@H](C)NC(=O)[C@H](C)NC(=O)[C@H](C)NC(=O)[C@H](C)NC(=O)[C@H](C)NC(=O)[C@H](C)NC(=O)[C@H](C)NC(=O)[C@H](C)NC(=O)[C@H](C)N)(c1ccccc1)c1ccccc1 [Diphenyl bis(nonaalanyl)silylester] (I: H-AAAAAAAAA / II: H-AAAAAAAAA; linker I:C-II:C via X2)
- Wirkung auf Lymphome (Lymphome): zeigen eine Wirkung
- Wirkung gegen Hepatitis-Viren (Hepatitis-Viren): zeigen eine Wirkung

Compound: C[C@H](N)C(=O)N[C@@H](C)C(=O)N[C@@H](C)C(=O)N[C@@H](C)C(=O)N[C@@H](C)C(=O)N[C@@H](C)C(=O)N[C@@H](C)C(=O)N[C@@H](C)C(=O)O[Si](OC(=O)[C@H](C)NC(=O)[C@H](C)NC(=O)[C@H](C)NC(=O)[C@H](C)NC(=O)[C@H](C)NC(=O)[C@H](C)NC(=O)[C@H](C)NC(=O)[C@H](C)N)(c1ccccc1)c1ccccc1 [Diphenyl bis(octaalanyl)silylester] (I: H-AAAAAAAA / II: H-AAAAAAAA; linker I:C-II:C via X2)
- Wirkung auf Lymphome (Lymphome): zeigen eine Wirkung
- Wirkung gegen Hepatitis-Viren (Hepatitis-Viren): zeigen eine Wirkung

Compound: C[C@H](N)C(=O)N[C@@H](C)C(=O)N[C@@H](C)C(=O)N[C@@H](C)C(=O)N[C@@H](C)C(=O)O[Si](OC(=O)[C@H](C)NC(=O)[C@H](C)NC(=O)[C@H](C)NC(=O)[C@H](C)NC(=O)[C@H](C)N)(c1ccccc1)c1ccccc1 [Diphenyl bis(pentaalanyl)silylester]
- Wirkung auf Lymphome (Lymphome): zeigen eine Wirkung
- Wirkung gegen Hepatitis-Viren (Hepatitis-Viren): zeigen eine Wirkung

Compound: C[C@H](N)C(=O)N[C@@H](C)C(=O)N[C@@H](C)C(=O)N[C@@H](C)C(=O)O[Si](OC(=O)[C@H](C)NC(=O)[C@H](C)NC(=O)[C@H](C)NC(=O)[C@H](C)N)(c1ccccc1)c1ccccc1 [Diphenyl bis(tetraalanyl)silylester]
- Wirkung auf Lymphome (Lymphome): zeigen eine Wirkung
- Wirkung gegen Hepatitis-Viren (Hepatitis-Viren): zeigen eine Wirkung

Compound: Diphenyl bis(hexaalanyl)silylester
- Wirkung auf Lymphome (Lymphome): zeigen eine Wirkung
- Wirkung gegen Hepatitis-Viren (Hepatitis-Viren): zeigen eine Wirkung
